{
  "source": "patent US20240120053A1",
  "about": "“5-HT RECEPTOR AGONIST TITRATION” (Diamond Therapeutics Inc., priority 2021, published 2024)",
  "key": {"[1]": {"tested_on": "out-bred Long Evans rats", "assay": "5CSRTT with long 10 s ITI, premature (PREM) and perseverative (PSV) responses", "assay_type": "in vivo", "conditions": "24 rats, 0.05 mg/kg S.C., p=0.05, t-test", "excerpt": "(§1) The 5CSRTT involves evaluating test subject response to a brief visual stimulus (Higgins, Guy & Silenieks, Leonardo. (2017). Rodent Test of Attention and Impulsivity: The 5-Choice Serial Reaction Time Task: The 5-Choice Serial Reaction Time Task. 10.1002/cpph.27). Animals are trained to make a nose-poke response to a stimulus location in order to collect a food reward. The task allows the experimenter to measure animal performance in multiple domains including: • Attention • Impulsivity • Perseveration • Speed of response\n(§2) A strength of the test is its flexible configuration to challenge test subjects: • Standard test conditions (0.75s stimulus duration (SD), 5s inter-trial interval (ITI), 100 trials) • Multiple short stimulus duration (mSD) (0.03-1s SD) • Fixed long ITI (5 s vs. 10 s ITI) • Multiple ultrashort ITI (2-5s ITI) • Extended 250 trials\nWhen this population is segmented into tertiles according to performance based on accuracy (% correct, calculated as #correct/(#correct+#incorrect)*100), the lowest performing tertile (N=8) are considered to be low attentive and potentially representative of a low attentive endophenotype of depression (FIG. 26A). Low attentive rats also score poorly on % hit (FIG. 26B) and have a slower response speed (FIG. 26D). […] Asterisk (*) indicates statistical significance vs. vehicle. […]"}, "[2]": {"assay": "Blood plasma levels of psilocin over time in rats dosed with psilocybin", "assay_type": "in vivo", "conditions": "psilocybin 0.05 mg/kg, after 30 mins"}, "[3]": {"tested_on": "mice", "assay": "Ongoing spectral power (qEEG, power spectral density) over daily recording sessions", "assay_type": "in vivo", "conditions": "ascending low, medium, high dose (FIG. 7A-8B)", "description": "(§3) Fourteen mice with a history of testing with scopolamine and memantine, containing implanted with a frontal screw for MMN measurement (in mm: AP 1.5; ML 0.5) and an auditory screw for ASSR measurement (in mm: AP −2.8; ML 4.2), are administered an ascending dose of psilocybin. As the mice have been tested with the MMN-ASSR protocol, they are not further habituated prior to psilocybin testing. The ascending dose protocol is summarized below and in FIG. 1: • Week 1: Day 1: Saline, Day 2: Vehicle • Week 2: Day 1:Saline, Day 2: Low Dose • Week 3: Day 1: Saline, Day 2: Medium Dose • Week 4: Day 1: Saline, Day 2: High Dose\nIn particular, on Day 1, animals are subcutaneously administered saline at t=−15 minutes prior to recording start. […]\n(§4) The ongoing behavior (e.g., speed, total number of grooming bouts, elongation factor, distance traveled, head bobbing, etc.) of each mouse is assessed over each daily recording session (e.g., see FIG. 3). […] The amplitude of the standard and deviant waveforms are also calculated. […] The ASSR is recorded as the average amplitude of both Evoked Power and Phase Locking Factor at each frequency (20 Hz, 30 Hz, 40 Hz, and 8 Hz) for control (saline) and compound (psilocybin). The difference between the control and compound recording for Evoked Power (e.g., see FIG. 4A and FIG. 4B) and Phase Locking Factor (e.g., see FIG. 5A and FIG. 5B) is determined. […]"}, "[4]": {"tested_on": "out-bred Long Evans rats", "assay": "Progressive ratio (PR) test of motivation", "assay_type": "in vivo", "description": "(§5) Experiments were conducted to test psilocybin doses in the range of 0.05-0.2 mg/kg psilocybin administered S.C. across progressive ratio (PR) and 5-choice serial reaction time task (5CSRTT) to examine the effect of psilocybin on endophenotypes of motivation and attention. In each study, a population of out-bred Long Evans rats was first tested as a group for response to the PR and 5CSRTT. Each group was then divided into sub-groups by tertiles according to performance, and then exposed to various dose levels immediately prior to re-testing at various psilocybin dose levels.\nThe PR test is used to answer how willing the test subject is to work for food (i.e. test of motivation). A single 45 mg food pellet (i.e. reinforcer) is made available to the test animal based on lever press response. To obtain each successive pellet, the animal must make increasingly more lever presses. Typically, a progression of 2, 4, 6, 9, 12, 15, 20, 25, 32, 40, 50, 62, 77, 95, 118, etc. is used, derived from the equation:\nratio=[5×e^(0.2×reinforcer#)−5]\nAt some point, the animal gives up as the motor demands to obtain a single pellet are not deemed worthwhile (i.e. animal reaches“break point” defined as animal's failure to earn a food pellet in 20 minutes).\nRats were then sub-grouped into tertiles based on the number of lever presses for food at baseline, so that within the test population of 36 animals, 12 animals were identified as low responders, characterized by low motivation and potentially corresponding to low motivation endophenotype representative of clinical depression. Twelve animals were identified as high responders. There was a statistically significant difference between the high and low responders. […] This represents a motivational enhancing effect of psilocybin in the cohort corresponding to a low motivation endophenotype representative of clinical depression."}, "[5]": {"conditions": "cited from earlier work"}, "[6]": {"tested_on": "out-bred Long Evans rats", "assay": "5-choice serial reaction time task (5CSRTT), standard conditions, 5 s ITI", "assay_type": "in vivo", "description": "as §5, §1, §2\nAsterisk (*) indicates statistical significance vs. vehicle. (FIG. 23A).\nWhen this population is segmented into tertiles according to performance based on accuracy (% correct, calculated as #correct/(#correct+#incorrect)*100), the lowest performing tertile (N=8) are considered to be low attentive and potentially representative of a low attentive endophenotype of depression (FIG. 26A). Low attentive rats also score poorly on % hit (FIG. 26B) and have a slower response speed (FIG. 26D). […] Asterisk (*) indicates statistical significance vs. vehicle. […] Using a longer duration between stimulus and reward, the 5CSRTT study measures premature (PREM) and perseverant (PSV) responses. PREM/PSV responses were increased by increasing the ITI from 5s (baseline) to 10s (test condition). […] Both PREM and PSV behaviors are examples of executive cognitive function, likely involving areas of the prefrontal cortex, a brain region rich in 5-HT2A receptors."}, "[7]": {"tested_on": "mice", "assay": "Mismatch Negativity (MMN) EEG test, ascending dose protocol", "assay_type": "in vivo", "conditions": "ascending low, medium, high dose, frontal cortex EEG recording (FIG. 6A, 6B)", "description": "as §3\nEach animal is administered the same compound and dose each day (e.g., saline on day 1, vehicle or compound on day 2). […]\nas §4"}, "[8]": {"conditions": "24 rats, standard conditions, 5 s ITI"}},
  "note": "“Also recorded” adds a separate entry of the source.",
  "data": [
    {"smiles": "CN(C)CCc1c[nH]c2cccc(OP(=O)(O)O)c12", "note": "[psilocybin, 4-phosphoryloxy-N,N-dimethyltryptamine]", "values": [
      {"measurement": "PREM and PSV responses", "setting": "[1]", "value": "increase"},
      {"measurement": "Cmax psilocin", "setting": "[2]", "value": "6+2 ng/ml"},
      {"measurement": "general brain activity (ongoing spectral power, average PSD)", "setting": "[3]", "value": "higher dose corresponds with a decrease in general brain activity"},
      {"measurement": "number of lever presses or break points (rewards earned)", "setting": "[4]; entire study population of 36 rats, 0.05, 0.1 and 0.2 mg/kg S.C.", "value": "None of these doses were observed to cause obvious changes"},
      {"measurement": "response in PR test", "setting": "[4]; high responder subgroup (12 rats), 0.05-0.2 mg/kg S.C.", "value": "no effect on response"},
      {"measurement": "food responding (lever presses, break point) in PR test", "setting": "[4]; low responder subgroup (12 rats), 0.05 mg/kg S.C., 0.05 mg/kg", "value": "an increase in food responding; also recorded: Significant improvements"},
      {"measurement": "food responding in PR test", "setting": "[4]; low responder subgroup (12 rats), 0.1 mg/kg S.C.", "value": "did not produce an increase in food responding"},
      {"measurement": "doses at which about half of the subjects experience some negative emotions or acute psychological distress", "setting": "[5]; human subjects", "value": "≥ 30", "unit": "mg"},
      {"measurement": "doses at which the majority of side effects reported in the literature have occurred", "setting": "[5]; human subjects, equals 0.30-0.45 mg/kg", "value": "20 to 30", "unit": "mg"},
      {"measurement": "threshold dose where mild hallucinogenic activity begins to occur in about half of the subjects", "setting": "[5]; human subjects, reported in the literature", "value": 10, "unit": "mg"},
      {"measurement": "onset of physical symptoms (dizziness, nausea, vomiting, headaches, increased pulse and blood pressure etc.)", "setting": "[5]; people, after taking the drug", "value": "20 to 30", "unit": "min"},
      {"measurement": "duration of physical symptoms (dizziness, nausea, vomiting, headaches, increased pulse and blood pressure etc.)", "setting": "[5]; people", "value": "up to 6 hours"},
      {"measurement": "duration of psychedelic symptoms (distorted perception, mood changes)", "setting": "[5]; people, higher doses, most find symptoms gone by 6 hours after ingestion", "value": "up to 12 hours"},
      {"measurement": "pro-cognitive effect measured as % hit", "setting": "[6]; 24 rats, 0.05 mg/kg S.C., 75s SD, 5S ITI, 100 trials, vs. vehicle", "value": "increased (p=0.05, t-test) pro-cognitive effect"},
      {"measurement": "procognitive effect measured as % correct", "setting": "[6]; 24 rats, 0.05 mg/kg S.C., standard conditions, 5 s ITI", "value": "slight non-significant increase"},
      {"measurement": "performance: response speed, number of trials completed", "setting": "[6]; [8]", "value": "no effect on response speed, or number of trials completed"},
      {"measurement": "premature or perseverative responses", "setting": "[6]; [8]", "value": "no effect on premature or perseverative responses"},
      {"measurement": "detrimental effects on performance (motivation, motor control, attention, response speed)", "setting": "[6]; PR and 5CSRTT studies together, 0.05-0.2 mg/kg (PR), 0.05-0.1 mg/kg S.C. (5CSRTT)", "value": "no detrimental effects"},
      {"measurement": "response speed", "setting": "[6]; low attentive cohort, 0.05 mg/kg, vs. vehicle, 0.05 mg/kg", "value": "increased response speed; also recorded: Significant improvements"},
      {"measurement": "effect on accuracy (% correct and % hit)", "setting": "[6]; low attentive subgroup (lowest tertile, N=8), 0.05 and 0.1 mg/kg, vs. vehicle", "value": "strongly evident; also recorded: Significant improvements"},
      {"measurement": "MMN: difference between the standard tone waveform and the deviant tone waveform", "setting": "[7]", "value": "larger difference between the standard tone waveform and the deviant form waveform with higher doses"}
    ]}
  ]
}
